Source: patent US20190233884A1 (University of Southern California, priority 2016, published 2019)

Test system: patients with refractory metastatic colorectal cancer (mCRC)
Test: PFS, OS and disease control in the training (evaluation) cohort of refractory mCRC patients receiving TAS-102 (n=52, Japan), by baseline characteristics, SNP genotype and toxicity
Format: in vivo, human
Settings: evaluation cohort
Procedure: All patients underwent the treatment in salvage-line setting. […]
Genomic DNA was extracted from peripheral whole blood in patients of all cohorts using the QIAmp Kit (Qiagen, Valencia, Calif., USA) according to the manufacturer's protocol (www.qiagen.com). The candidate SNPs were genotyped using PCR-based direct DNA sequence analysis by ABI 3100A Capillary Genetic Analyzer and Sequencing Scanner v1.0 (Applied Biosystems). Amplification of extracted DNA was carried out using both forward and reverse primers for each gene polymorphism as shown in Table 1. […] The investigators analyzing SNPs were blinded to the clinical data of the study patients.
The primary endpoint in this study was progression-free survival (PFS), and the secondary endpoints were overall survival (OS) and disease control rate (DCR). PFS was calculated from the date of starting treatment to the first observation of disease progression or death from any cause. If a patient had no disease progression or death, PFS was censored at the date of last follow up. OS was calculated from the date of starting treatment until the date of death from any cause or the date of the last follow-up, at which point OS was censored. The disease control rate (DCR) was defined as the proportion of patients who achieved a stable disease (SD) or […] according to RECISTv1.1. Chi-square test was used to examine the difference in baseline patient characteristics among the three cohorts. Allelic distribution of all SNPs by ethnicity for deviation from Hardy-Weinberg equilibrium and the allelic frequencies of SNPs were tested using the Chi-square tests with one degree of freedom. The associations between candidate SNPs and disease control, and toxicities were examined using contingency tables and Fisher's exact test. The associations of SNPs with PFS and OS were analysed using Kaplan-Meier curves and the log-rank test. Because the true mode of inheritance of candidate SNPs was not established yet, a codominant or dominant genetic model if appropriate was considered.
All patients underwent the treatment in salvage-line setting. […] In all patients, adverse events were graded according to the Common Terminology Criteria for Adverse Events, version 4.0. […]
Genomic DNA was extracted from peripheral whole blood in patients of all cohorts using the QIAmp Kit (Qiagen, Valencia, Calif., USA) according to the manufacturer's protocol (www.qiagen.com). The candidate SNPs were tested using PCR-based direct DNA sequence analysis by ABI 3100A Capillary Genetic Analyzer and Sequencing Scanner v1.0 (Applied Biosystems). […] The investigators analyzing SNPs were blinded to the clinical data.
The primary endpoint in this study was progression-free survival (PFS), and the secondary endpoints were overall survival (OS) and disease control rate (DCR).

[1] = CHEK2 rs2267130 Any C vs T/T (Ref.), multivariable
[2] = CHEK2 rs2267130 Any C vs T/T (Ref.), univariate
[3] = CHEK2 rs2267130 C/C vs T/T (Ref.), multivariable
[4] = CHEK2 rs2267130 C/C vs T/T (Ref.), univariate
[5] = CHEK2 rs2267130 T/C vs T/T (Ref.), multivariable
[6] = CHEK2 rs2267130 T/C vs T/T (Ref.), univariate
[7] = Che1 rs1564796 T/C and C/C grouped together
[8] = FANCD2 rs6792811 G/A and G/G grouped together

## Trifluridine/tipiracil [TAS-102]
BRCA1 rs16941 T/C
  PD, patients n (%): 15 (68%)
BRCA1 rs16941 T/T
  Disease Control Rate SD, patients n (%): 7 (37%)
  PD, patients n (%): 12 (63%)
BRCA1 rs799917 A/A
  Disease Control Rate SD, patients n (%): 1 (20%)
  PD, patients n (%): 4 (80%)
BRCA1 rs799917 Any A
  Disease Control Rate SD, patients n (%): 8 (30%)
  PD, patients n (%): 19 (70%)
BRCA1 rs799917 G/A
  Disease Control Rate SD, patients n (%): 7 (32%)
  PD, patients n (%): 15 (68%)
BRCA1 rs799917 G/G
  Disease Control Rate SD, patients n (%): 7 (37%)
  PD, patients n (%): 12 (63%)
BRCA2 rs144848 A/A
  Disease Control Rate SD, patients n (%): 8 (29%)
  PD, patients n (%): 20 (71%)
BRCA2 rs144848 A/C
  Disease Control Rate SD, patients n (%): 6 (46%)
  PD, patients n (%): 7 (54%)
BRCA2 rs144848 Any C
  Disease Control Rate SD, patients n (%): 7 (39%)
  PD, patients n (%): 11 (61%)
BRCA2 rs144848 C/C
  Disease Control Rate SD, patients n (%): 1 (20%)
  PD, patients n (%): 4 (80%)
CHEK2 rs2267130 Any C
  Disease Control CR/PR/SD, patients n (%): 12 (46%)
  Median OS (95% CI): 8.3 (5.7, 15.6+) months
  Median PFS (95% CI): 3.4 (2.1, 4.6) months
  PD, patients n (%): 14 (54%)
[1]
  HR OS (95% CI): 0.71 (0.29, 1.77)
  HR PFS (95% CI): 0.49 (0.26, 0.94)
[2]
  HR OS (95% CI): 0.71 (0.29, 1.74)
  HR PFS (95% CI): 0.48 (0.25, 0.90)
CHEK2 rs2267130 C/C
  Disease Control CR/PR/SD, patients n (%): 3 (43%)
  Median OS (95% CI): 5.7 (1.4, 10.7+) months
  Median PFS (95% CI): 2.7 (0.9, 4.6+) months
  PD, patients n (%): 4 (57%)
[3]
  HR OS (95% CI): 1.31 (0.39, 4.42)
  HR PFS (95% CI): 0.59 (0.23, 1.51)
[4]
  HR OS (95% CI): 1.21 (0.37, 3.99)
  HR PFS (95% CI): 0.62 (0.25, 1.58)
CHEK2 rs2267130 T/C
  Disease Control CR/PR/SD, patients n (%): 9 (47%)
  Median OS (95% CI): 12.4 (6.3, 15.6+) months
  Median PFS (95% CI): 3.7 (2.1, 5.2) months
  PD, patients n (%): 10 (53%)
[5]
  HR OS (95% CI): 0.56 (0.20, 1.55)
  HR PFS (95% CI): 0.46 (0.22, 0.94)
[6]
  HR OS (95% CI): 0.59 (0.22, 1.60)
  HR PFS (95% CI): 0.44 (0.22, 0.89)
CHEK2 rs2267130 T/T
  Disease Control CR/PR/SD, patients n (%): 3 (15%)
  Median OS (95% CI): 8.1 (4.4, 8.7+) months
  Median PFS (95% CI): 2.1 (1.6, 2.9) months
  PD, patients n (%): 17 (85%)
  PFS: 2.1 months
CHEK2 rs22236142 Any C
  Disease Control Rate SD, patients n (%): 7 (27%)
  PD, patients n (%): 19 (73%)
CHEK2 rs22236142 C/C
  Disease Control Rate SD, patients n (%): 2 (25%)
  PD, patients n (%): 6 (75%)
CHEK2 rs22236142 G/C
  Disease Control Rate SD, patients n (%): 5 (28%)
  PD, patients n (%): 13 (72%)
CHEK2 rs22236142 G/G
  Disease Control Rate SD, patients n (%): 8 (40%)
  PD, patients n (%): 12 (60%)
Che1 rs1045056 T/C
  Disease Control Rate SD, patients n (%): 2 (22%)
  PD, patients n (%): 7 (78%)
Che1 rs1045056 T/T
  Disease Control Rate SD, patients n (%): 13 (35%)
  PD, patients n (%): 24 (65%)
[7]
  Disease Control Rate SD, patients n (%): 3 (25%)
  PD, patients n (%): 8 (67%)
Che1 rs1564796 T/T
  Disease Control Rate SD, patients n (%): 12 (34%)
  PD, patients n (%): 23 (66%)
FANCD2 rs2272125 T/G
  Disease Control Rate SD, patients n (%): 3 (50%)
  PD, patients n (%): 3 (50%)
FANCD2 rs2272125 T/T
  Disease Control Rate SD, patients n (%): 12 (30%)
  PD, patients n (%): 28 (70%)
FANCD2 rs6792811 A/A
  Disease Control Rate SD, patients n (%): 10 (33%)
  PD, patients n (%): 20 (67%)
[8]
  Disease Control Rate SD, patients n (%): 5 (29%)
  PD, patients n (%): 11 (71%)
PCNA rs25406 A/A
  Disease Control Rate SD, patients n (%): 4 (36%)
  PD, patients n (%): 7 (64%)
PCNA rs25406 Any A
  Disease Control Rate SD, patients n (%): 12 (44%)
  PD, patients n (%): 15 (56%)
PCNA rs25406 G/A
  Disease Control Rate SD, patients n (%): 8 (50%)
  PD, patients n (%): 8 (50%)
PCNA rs25406 G/G
  Disease Control Rate SD, patients n (%): 3 (19%)
  PD, patients n (%): 13 (81%)
Pin1 rs2233678 G/C
  Disease Control Rate SD, patients n (%): 0%
  PD, patients n (%): 2 (100%)
Pin1 rs2233678 G/G
  Disease Control Rate SD, patients n (%): 15 (34%)
  PD, patients n (%): 29 (66%)
Pin1 rs2233679 Any T
  Disease Control Rate SD, patients n (%): 11 (38%)
  PD, patients n (%): 18 (62%)
Pin1 rs2233679 C/C
  Disease Control Rate SD, patients n (%): 4 (24%)
  PD, patients n (%): 13 (76%)
Pin1 rs2233679 C/T
  Disease Control Rate SD, patients n (%): 8 (36%)
  PD, patients n (%): 14 (64%)
Pin1 rs2233679 T/T
  Disease Control Rate SD, patients n (%): 3 (43%)
